Values quoted from earlier work, collected in US20190307696A1, “TABLETS COMPRISING MIRABEGRON AND SOLIFENACIN” (SYNTHON B.V., priority 2016, published 2019).

Assays:
[1] = presence of food in the GI tract
[2] = neutral to acidic pH

## Nc1nc(CC(=O)Nc2ccc(CCNC[C@H](O)c3ccccc3)cc2)cs1 [Mirabegron]
other
  permeability (BCS): low permeability
  solubility (BCS): high solubility
[1]
  bioavailability: affected by the presence of food in the GI tract
[2]
  solubility in water: soluble in water between neutral to acidic pH
